# Measured values: PMC7180456, “Multitarget Anticancer Agents Based on Histone Deacetylase and Protein Kinase CK2 Inhibitors” (Molecules, 2020)
# Read-outs that look alike come from different tables or passages of the source.
# What was measured:
# CK2 = details: Figure 1; read-out: IC50 of representative CK2 inhibitors; cited from earlier work
# human recombinant HDAC1 = biological target: T1, human recombinant HDAC1 (Homo sapiens, UniProt Q13547); test: HDAC1 inhibition, fluorometric method (Enzo Fluorometric Drug Discovery Assay Kit); assay type: biochemical; details: read-out: Inhibitory activity IC50 on HDAC1
# T1 construct: purchased Enzo Life Sciences, Inc
# Experimental: The inhibitory activities of the synthesized compounds were determined against CK2 and HDAC1 and the IC50 values are collected in Table 1. The activity towards human recombinant HDAC1 was tested using a fluorometric method. CK2 inhibitory activity was determined by a radiometric method, using a short peptide ([…]) as a substrate.
# (§1) 15 µL of HDAC1 (0.4 µg/well) or HDAC6 (0.5 µg/well) were incubated at 37 °C for 30 minutes with 10 µL of inhibitor diluted in 5% DMSO and 25 µL of fluorogenic substrate (0.05 µL/well of 5 mM solution). Reactions were stopped with the developer and trichostatin A, diluted in buffer without BSA, and the plate was incubated at 30 °C for 45 min, followed by measuring the fluorescence (Ex. 360 nm, Em. 450 nm, Fluoroskan, Thermo Scientific).
# human recombinant CK2α = biological target: T2, human recombinant CK2α (Homo sapiens, UniProt P68400); test: CK2 inhibition, radiometric method with peptide substrate […]; assay type: biochemical; details: for fold less active in CK2 (than in HDAC1): CK2 IC50 versus HDAC1 IC50; for IC50: radiometric method, 20 µM ATP, read-out: Inhibitory activity IC50 on CK2
# T2 construct: GST; made in house; host or cells: bacteria
# Experimental: The activity towards human recombinant HDAC1 was tested using a fluorometric method. CK2 inhibitory activity was determined by a radiometric method, using a short peptide ([…]) as a substrate.
# Recombinant human protein kinase GST-CK2 was produced in bacteria and purified as described elsewhere. […] The reaction buffer contained 20 µM [γ-32P] ATP (specific radioactivity 300–1000 cpm/pmol), 15 mM Mg^2+, 20 mM Tris–HCl pH 7.5, and 6 mM 2-mercaptoethanol. 10 µL of the assay mixture was spotted onto a square (1 cm/1 cm) of Whatman P81 paper and allowed to dry. Each square was immersed in cold 0.5% phosphoric acid, and washed three times during 10 min, allowed to dry and transferred into a vessel containing Opti-Phase liquid (scintillation solution) and radioactivity was quantified using a scintillation counter (MicroBeta, Perkin Elmer) by Cerenkov counting. All experiments were performed in triplicate. IC50 values were calculated using GraphPad Prism (version 4.0) software.
# [1] = system: breast adenocarcinoma cells of MCF-7 line; test: Cytotoxicity, trypan blue exclusion assay, 24 h; details: Homo sapiens
# Experimental: (§4) Walter Berger, Institute of Cancer Research, Vienna Medical University. Human embryonal kidney cells of HEK293 line were obtained from cell culture collection of R.E. Kavetsky Institute of Experimental Pathology, Oncology and Radiobiology, National Academy of Sciences of Ukraine (Kyiv, Ukraine).
# (§5) Cells were seeded (5 × 10^5/mL for leukemia cells and 1 × 10^5/mL for carcinoma cells) into 24-well tissue culture plates (Greiner Bio-one, Frickenhausen, Germany) and were permitted to adhere and grow for 24 h before the experiment. Short-term (24 h) cytotoxic effect of antitumor drugs was studied under the Evolution 300 Trino microscope (Delta Optical, Nowe Osiny, Poland) after cell staining with trypan blue dye (0.1%).
# (§6) Final concentration of DMSO in cell culture was 0.5% or less.
# (§7) All experiments were performed in triplicate and repeated three times. Statistical analysis of data was conducted in GraphPad Prism 7.0 Software (GraphPad Software, Inc.) using Student’s t test. Statistical significance was set at P ≤ 0.05. Evaluation of LC50 values of each compound was done by built-in functions of GraphPad Prism (non-linear regression, curve fit, [Inhibitor] vs. normalized response - Variable slope).
# [2] = Cytotoxicity, trypan blue exclusion assay, 24 h (pseudonormal cells); details: human, HEK293 embryonic kidney cells (pseudonormal)
# Experimental: as §4, §5, §6, §7
# [3] = system: HCT-116 colon carcinoma cells; test: Cytotoxicity, trypan blue exclusion assay, 24 h; details: Homo sapiens
# Experimental: as §4, §5, §6, §7
# HDAC6 = biological target: T3, HDAC6 (Homo sapiens, UniProt Q9UBN7); test: HDAC6 inhibition, fluorometric method (Enzo Fluorometric Drug Discovery Assay Kit); assay type: biochemical; details: read-out: Inhibitory activity IC50 on HDAC6
# T3 construct: purchased Enzo Life Sciences, Inc
# T3 sequence (Q9UBN7 1-1215): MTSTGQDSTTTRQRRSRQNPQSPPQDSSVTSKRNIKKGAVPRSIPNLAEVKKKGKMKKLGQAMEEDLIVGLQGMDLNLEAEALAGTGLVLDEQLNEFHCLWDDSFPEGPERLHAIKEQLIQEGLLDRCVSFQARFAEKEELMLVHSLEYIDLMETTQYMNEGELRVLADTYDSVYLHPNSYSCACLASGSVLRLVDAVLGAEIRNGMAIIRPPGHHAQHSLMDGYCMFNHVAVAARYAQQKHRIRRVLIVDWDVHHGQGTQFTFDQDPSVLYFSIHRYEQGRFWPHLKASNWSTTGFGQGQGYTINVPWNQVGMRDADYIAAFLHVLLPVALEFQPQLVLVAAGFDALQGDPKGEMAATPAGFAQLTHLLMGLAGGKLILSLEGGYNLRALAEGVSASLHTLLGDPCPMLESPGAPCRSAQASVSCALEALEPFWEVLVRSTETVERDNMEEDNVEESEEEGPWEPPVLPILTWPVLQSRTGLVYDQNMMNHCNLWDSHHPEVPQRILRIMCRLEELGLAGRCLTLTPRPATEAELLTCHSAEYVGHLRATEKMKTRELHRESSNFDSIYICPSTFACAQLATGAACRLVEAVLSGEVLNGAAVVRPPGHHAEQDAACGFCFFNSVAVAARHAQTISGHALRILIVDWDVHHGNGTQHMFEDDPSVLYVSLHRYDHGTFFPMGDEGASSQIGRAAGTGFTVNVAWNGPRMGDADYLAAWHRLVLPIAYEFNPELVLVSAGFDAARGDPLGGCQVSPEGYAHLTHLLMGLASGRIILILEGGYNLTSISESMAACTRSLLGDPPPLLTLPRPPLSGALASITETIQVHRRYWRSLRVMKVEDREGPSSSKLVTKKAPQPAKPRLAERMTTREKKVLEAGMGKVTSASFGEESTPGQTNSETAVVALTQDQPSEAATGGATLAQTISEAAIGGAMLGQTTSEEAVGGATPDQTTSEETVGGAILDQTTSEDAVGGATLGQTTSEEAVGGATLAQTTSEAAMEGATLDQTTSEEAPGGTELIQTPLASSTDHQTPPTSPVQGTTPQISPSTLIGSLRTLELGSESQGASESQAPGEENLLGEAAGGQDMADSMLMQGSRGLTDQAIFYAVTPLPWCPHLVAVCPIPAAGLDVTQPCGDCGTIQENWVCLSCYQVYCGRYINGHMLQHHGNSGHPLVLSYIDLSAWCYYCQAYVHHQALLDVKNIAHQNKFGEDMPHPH
# Experimental: For this reason, we analyzed the activity of 15 and 19, together with other compounds from the alkyl and triazole series in HDAC6, tested using a fluorometric method (Table 1).
# as §1
# HL-60/wt cells = test: Depolarization of mitochondria, JC-1 assay, FACS; assay type: cell-based, human; details: 24 h
# [4] = system: HL-60/vinc (vincristine-resistant, P-gp overexpression); test: Cytotoxicity, trypan blue exclusion assay, 24 h; assay type: cell-based; details: for CC50: Homo sapiens, HL60/vinc
# Excerpt: (§2) Taking into consideration the high abundance of CK2 kinase in leukemia and lymphomas, the ability of selected CK2-HDAC dual inhibitors to circumvent MDR was investigated in human leukemia cells of HL-60 line and its doxorubicin-resistant (HL-60/adr, MRP-1 overexpression) and vincristine-resistant (HL-60/vinc, P-gp overexpression) sublines.
# (§3) Statistical significance was set at P ≤ 0.05.
# [5] = system: leukemia cells of HL-60 line; test: Cytotoxicity, trypan blue exclusion assay, 24 h; assay type: cell-based; details: Homo sapiens
# Excerpt: as §2, §3
# [6] = system: HL-60/adr (doxorubicin-resistant, MRP-1 overexpression); test: Cytotoxicity, trypan blue exclusion assay, 24 h; assay type: cell-based; details: Homo sapiens, HL60/ADR
# Excerpt: as §2, §3
# [7] = system: human tumor and pseudonormal cell lines; test: Cytotoxicity, trypan blue assay, range over the cell lines tested; assay type: cell-based; details: 24 h, read-out: LC50 range depending on cell line
# Excerpt: as §3
# Jurkat T-leukemia cells = test: Cytotoxicity, trypan blue exclusion assay, 24 h; details: Homo sapiens
# Experimental: as §4, §5, §6, §7
# [8] = MCF7, 24 h, read-out: LC50 Values of Compounds for Cell Line, MCF-7
# [9] = MCF7, read-out: LC50 values of compounds for cell line, MCF-7
# [10] = LC50 Values of Compounds for Cell Line, HEK293, Table 2, trypan blue, 24 h, M ± SD
# [11] = LC50 values of compounds for cell line, HEK293, supplement Table 4S, M±SD
# [12] = HCT-116, 24 h, read-out: LC50 Values of Compounds for Cell Line, HCT-116
# [13] = HCT-116, read-out: LC50 values of compounds for cell line, HCT-116
# [14] = Table 2, trypan blue, 24 h, M ± SD, read-out: LC50 Values of Compounds for Cell Line, HL-60/vinc
# [15] = supplement Table 4S, M±SD, read-out: LC50 values of compounds for cell line, HL-60/vinc
# [16] = Table 2, trypan blue, 24 h, M ± SD, read-out: LC50 Values of Compounds for Cell Line, HL-60
# [17] = supplement Table 4S, M±SD, read-out: LC50 values of compounds for cell line, HL-60
# [18] = Table 2, trypan blue, 24 h, M ± SD, read-out: LC50 Values of Compounds for Cell Line, HL-60/adr
# [19] = supplement Table 4S, M±SD, read-out: LC50 values of compounds for cell line, HL-60/adr
# [20] = 24 h, read-out: LC50 Values of Compounds for Cell Line, Jurkat
# [21] = read-out: LC50 values of compounds for cell line, Jurkat
# T1 sequence (Q13547 whole entry): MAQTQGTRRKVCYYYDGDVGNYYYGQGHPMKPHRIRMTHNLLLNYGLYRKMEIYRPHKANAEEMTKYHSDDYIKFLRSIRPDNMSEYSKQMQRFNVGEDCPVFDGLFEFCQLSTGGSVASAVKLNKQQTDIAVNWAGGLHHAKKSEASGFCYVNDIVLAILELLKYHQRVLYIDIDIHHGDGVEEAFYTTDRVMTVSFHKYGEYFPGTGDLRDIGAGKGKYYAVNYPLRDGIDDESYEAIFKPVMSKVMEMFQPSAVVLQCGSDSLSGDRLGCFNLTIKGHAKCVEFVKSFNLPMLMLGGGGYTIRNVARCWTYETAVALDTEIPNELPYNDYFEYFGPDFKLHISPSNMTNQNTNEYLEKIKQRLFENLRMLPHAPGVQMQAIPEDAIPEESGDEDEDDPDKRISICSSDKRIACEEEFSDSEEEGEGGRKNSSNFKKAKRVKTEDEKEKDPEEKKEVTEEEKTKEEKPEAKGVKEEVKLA
# T2 sequence (P68400 whole entry): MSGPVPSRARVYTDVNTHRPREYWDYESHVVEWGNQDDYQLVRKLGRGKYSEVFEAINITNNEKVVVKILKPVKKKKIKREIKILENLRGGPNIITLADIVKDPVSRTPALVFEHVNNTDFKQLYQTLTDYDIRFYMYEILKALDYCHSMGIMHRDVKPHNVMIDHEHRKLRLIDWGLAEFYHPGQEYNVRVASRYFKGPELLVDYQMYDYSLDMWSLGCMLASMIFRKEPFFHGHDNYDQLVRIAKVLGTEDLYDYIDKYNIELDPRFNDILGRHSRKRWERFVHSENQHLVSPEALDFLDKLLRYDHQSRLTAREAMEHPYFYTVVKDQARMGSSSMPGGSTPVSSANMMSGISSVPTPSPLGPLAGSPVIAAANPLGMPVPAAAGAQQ
smiles,measurement,setting,value
O=c1c(O)c(-c2ccc(O)c(O)c2)oc2cc(O)ccc12 [Fisetin],IC50,CK2,0.35 µM
O=c1oc2c(O)c(O)cc3c(=O)oc4c(O)c(O)cc1c4c23 [Ellagic acid],IC50,CK2,0.04 µM
"CN(C)c1nc2c(Br)c(Br)c(Br)c(Br)c2n1Cc1cn(CCCC(=O)NO)nn1 [Compound 7a, N-Hydroxy-4-(4-((4,5,6,7-tetrabromo-2-(dimethylamino)-1H-benzo[d]imidazol-1-yl)methyl)-1H-1,2,3-triazol-1-yl)butanamide]",IC50,human recombinant HDAC1,1.43 µM
same,fold less active in CK2 (than in HDAC1),human recombinant CK2α,60 fold
same,IC50,human recombinant CK2α,85.1 µM
"CN(C)c1nc2c(Br)c(Br)c(Br)c(Br)c2n1CCc1cn(CCCC(=O)NO)nn1 [Compound 7d, N-Hydroxy-4-(4-(2-(4,5,6,7-tetrabromo-2-(dimethylamino)-1H-benzo[d]imidazol-1-yl)ethyl)-1H-1,2,3-triazol-1-yl)butanamide]",IC50,human recombinant HDAC1,10.2 µM
same,IC50,human recombinant CK2α,53.8 µM
"CN(C)c1nc2c(Br)c(Br)c(Br)c(Br)c2n1CCCCCCCC(=O)NO [Compound 11d, N-Hydroxy-8-(4,5,6,7-tetrabromo-2-(dimethylamino)-1H-benzo[d]imidazol-1-yl)octanamide]",CC50,[1]; [8],9.02 ± 0.9 µM
same,CC50,[1]; [9],27.8 µM
same,CC50 at 24 h,[2]; [10],8.41 ± 1.26 µM
same,CC50 at 24 h,[2]; [11],> 30 µM
same,IC50,human recombinant HDAC1,13.7 µM
same,CC50,[3]; [12],3.1 ± 0.37 µM
same,CC50,[3]; [13],16.9 µM
same,IC50,HDAC6,8.98 µM
same,level of depolarized mitochondria,HL-60/wt cells; dose not stated in the sentence (10 µM and 30 µM tested),53.23%
same,change of activity towards P-gp overexpressing HL-60/vinc cells versus HL-60/wt,[4]; 24 h,increased twofold
same,CC50,[4]; [14],2.32 ± 1.06 µM
same,CC50,[4]; [15],> 30 µM
same,CC50,[5]; [16],4.69 ± 0.54 µM
same,CC50,[5]; [17],29.7 µM
same,CC50,[6]; [18],8.4 ± 1.21 µM
same,CC50,[6]; [19],15.1 µM
same,CC50,[7],3 to 8 µM
same,CC50,Jurkat T-leukemia cells; [20],5.3 ± 0.75 µM
same,CC50,Jurkat T-leukemia cells; [21],14.2 µM
"CN(C)c1nc2c(Br)c(Br)c(Br)c(Br)c2n1CCCCC(=O)NO [Compound 11a, N-Hydroxy-5-(4,5,6,7-tetrabromo-2-(dimethylamino)-1H-benzo[d]imidazol-1-yl)pentanamide]",IC50,human recombinant HDAC1,62 µM
same,IC50,human recombinant CK2α,34.2 µM
"CN(C)c1nc2c(Br)c(Br)c(Br)c(Br)c2n1CCCCCC(=O)NO [Compound 11b, N-Hydroxy-6-(4,5,6,7-tetrabromo-2-(dimethylamino)-1H-benzo[d]imidazol-1-yl)hexanamide]",CC50,[1]; [8],15.7 ± 2.54 µM
same,CC50,[1]; [9],9.97 µM
same,CC50 at 24 h,[2]; [10],23.3 ± 4.38 µM
same,CC50 at 24 h,[2]; [11],13.6 µM
same,IC50,human recombinant HDAC1,1.46 µM
same,CC50,[3]; [12],4.22 ± 0.46 µM
same,CC50,[3]; [13],1.9 µM
same,IC50,HDAC6,0.66 µM
same,depolarization of mitochondria,HL-60/wt cells; 10 µM,14.55%
same,depolarization of mitochondria,HL-60/wt cells; 30 µM,34.06%
same,CC50,[4]; [14],16.8 ± 3.34 µM
same,CC50,[4]; [15],12.7 µM
same,CC50,[5]; [16],7.67 ± 1.17 µM
same,CC50,[5]; [17],6.59 µM
same,CC50,[6]; [18],16.2 ± 1.68 µM
same,CC50,[6]; [19],10.6 µM
same,CC50,[7],4 to 23 µM
same,CC50,Jurkat T-leukemia cells; [20],10.2 ± 1.43 µM
same,CC50,Jurkat T-leukemia cells; [21],10 µM
"O=C(NO)c1ccc(Cn2nnc3c(Br)c(Br)c(Br)c(Br)c32)cc1 [Compound 15b, N-Hydroxy-4-((tetrabromo-1H-benzo[d][1,2,3]triazol-1-yl)methyl)benzamide]",IC50,human recombinant HDAC1,4.22 µM
same,IC50,human recombinant CK2α,136 µM
same,IC50,HDAC6,2.7 µM
"CN(C)c1nc2c(Br)c(Br)c(Br)c(Br)c2n1Cc1cn(CCCCC(=O)NO)nn1 [Compound 7b, N-Hydroxy-5-(4-((4,5,6,7-tetrabromo-2-(dimethylamino)-1H-benzo[d]imidazol-1-yl)methyl)-1H-1,2,3-triazol-1-yl)pentanamide]",IC50,human recombinant HDAC1,2.25 µM
same,fold less active in CK2 (than in HDAC1),human recombinant CK2α,22 fold
same,IC50,human recombinant CK2α,50.1 µM
same,IC50,HDAC6,2.41 µM
